This is an account of results in patent US12648939B2, “Compounds and methods for treating spasticity” (Lexicon Pharmaceuticals, Inc., priority 2022, dated 2026).

For assay [1], the system named is myelin oligodendrocyte glycoprotein (MOG)-induced murine model of experimental autoimmune encephalomyelitis (EAE). Nature of the assay: Mechanical allodynia evaluation (Von Frey testing) in EAE model. Format: in vivo, C57BL/6J mice. Conditions: Day 9; for withdrawal force threshold (Von Frey): 10 mg/kg PO. The procedure:
The effect of Compound 1 on spasticity was evaluated in a myelin oligodendrocyte glycoprotein (MOG)-induced murine model of experimental autoimmune encephalomyelitis (EAE), a central nervous system (CNS) autoimmune demyelinating disease that mimics many of the clinical and pathologic features of multiple sclerosis. Gilgun-Sherki Y., et al., Neurosciences Research 47:201-207, 2003.
Study Design and Results. This study used sixty female young adult (10-11 weeks at study initiation) C57BL/6J mice sourced from Envigo RMS (Israel), Ltd. The animals were divided into five experimental groups:
FIG. 1 provides a representation of the study. Following baseline measurements, the MOG murine model begins with a sensitization period induced by the single subcutaneous (SC) injection of MOG emulsified in Complete Freund's adjuvant (CFA) on Study Day 0, followed by intraperitoneal (IP) supplemental immunostimulation with pertussis toxin (PT) carried out once at the day of EAE induction (study day 0) and once again 48 hours later (on study day 2). […] Mechanical allodynia was tested using the Von Frey test at Baseline and on Day 9 at various timepoints. For evaluation of spasticity, transcranial motor-evoked potentials (tcMEPs) were tested at Baseline and on Days 9 and 21-22 (half of the animals on each day). All animals were administered treatment once daily, starting on Day 0 until Day 22. Animals in Group 1 received oral (PO) treatment with the vehicle. Animals in Group 2 were treated with Fingolimod (FTY720; positive control) at a dose level of 3 mg/kg. PO. Animals in Groups 3 and 4 were treated with the test item Compound 1 at a dose level of 10 mg/kg or 3 mg/kg, PO, respectively. Animals in Group 5 were treated with Tizanidine at a dose level of 1 mg/kg, IP.
Mechanical Allodynia Evaluation (Von Frey Testing): Animals were tested for mechanical allodynia using the Von Frey test at Baseline, and then on Day 9 at 0.5 hours ([…]), 1.5 hours, 3.5 hours (all groups) and 5.5 hours (Groups 1-4 only) post-dose.

The test system of assay [2] is rat model of spasticity induced by complete spinal cord transection. The experiment in a line: Muscle spasms evoked by tibial nerve stimulation in chronic SCI rats. Format: in vivo. The settings on record: for duration of action (muscle spasms): recordings up to 6 hours. On the procedure: The efficacy of Compound 1 was measured in a rat model of spasticity induced by complete spinal cord transection. To induce muscle spasticity, a model of complete spinal cord transection cord at the eighth thoracic (T8) vertebral level was used. Five weeks after the Spinal Cord Injury (SCI), the rats were orally (P.O.) treated with Compound 1 (3, 10, or 30 mg/kg), Baclofen (4.5 mg/kg). Tizanidine (3 mg/kg) or vehicles alone (0.9% NaCl, Compound 1 vehicle), and the degree of spasticity response was measured using the rate-dependent depression (RDD) of the Hoffmann's reflex (H-reflex) and spasms induction.
Materials and Methods. […] One hundred and fifty-one SCI rats were maintained up to the end of the 5th post-injury week. One hundred and forty rats were submitted to P.O. administration of the test compounds and EMG analysis.
The rat was firmly restrained to immobilize the head. In an upright position, the gavage needle was passed along the side of the mouth. Following the roof of the mouth, the needle was advanced into the esophagus and toward the stomach. After the needle is passed to the correct length, the compound was slowly injected. The rats were randomly assigned to one of the test groups:
Electroneuromyographical recordings were performed in the right hind limbs before and 1, 2, 3, 4, 5 and 6 hours after P.O. administration.
Electromyographical (EMG) signals were amplified (100×) and bandpass filtered (300 Hz to 5 kHz; A-M Systems Amplifier. Everett, Washington; model 1700) before sampling at 13.5 kHz (Digidata 1440A, Molecular Devices). The tibial nerve was stimulated by using square pulses with increasing stimulus intensities (0.2 mA increments starting from 0.2 mA, 0.2 Hz, 0.2 ms; A-M systems stimulator, Model 2100) to obtain recruitment curves.
Muscles spasms: In awake chronic SCI rats, muscle spasms were evoked with stimulation of the tibial nerve while performing electromyographic (EMG) recordings from the flexor digitorum brevis (FDB) muscle. Spastic spinal rats were handled nine days before the experiment and progressively habituated to be individually constrained in a plexiglass tube and to immobilization of their paralyzed hindlimbs with tape. • 1. Hmax and Mmax determination: the tibial nerve was stimulated for 0.2 ms at 0.2 Hz with increasing current intensities (1-6 mA in 0.2 mA increments) until Mmax was stabilized. • 2. A supramaximal single-pulse stimulation to elicit muscle spasms was fixed throughout the experiment (2 or 3 times the threshold intensity for M-wave) and evoked 5 times, with 60 s interstimulus intervals. EMG were rectified and averaged over 2000 ms interval post-stimulus to quantify spasms (Clamplit 8.0, Axon Instruments).
Data analysis: H-reflex RDDs and areas under the curves (AUC) were determined as a measurement of spasticity and analyzed at each time point and for each frequency with Mann-Whitney test or with Kruskal Wallis one-way analysis of variance (ANOVA) test, followed by Dunn's multiple comparisons test. P<0.05 was considered significant. Significant differences were marked with asterisks (*) according to their respective P-values: values were expressed as the mean value±standard error of the mean (SEM) in all graphs. All statistical analyses were performed using GraphPad Prism 7 (San Diego, California, USA).
Modulation of Muscle Spasms. When the tibial nerve was stimulated in acutely (1 week after injury) injured rats, little reflexes were evoked in the FDB muscle (FIG. 8A), regardless of the stimulation intensity. In contrast, stimulation of the tibial nerve in chronic (5 weeks after injury) SCI rats produced more (P<0.0001; Mann-Whitney test; FIG. 8C) long-lasting muscle contractions (FIG. 8B). This effect is a reliable correlate of the development of spasticity. In spastic rats, spasms were induced through the FDB muscle after electrical stimulation of the tibial nerve. […]

Take `CC(C)C[C@](C)(N)COc1ccc(-c2ccnc(C(F)F)c2)nc1C(F)F` [Compound 1, (S)-1-((2′,6-bis(difluoromethyl)-[2,4′-bipyridin]-5-yl)oxy)-2,4-dimethylpentan-2-amine]: in assay [1] (3 mg/kg PO, all timepoints post dosing), the “withdrawal force threshold compared to the vehicle-treated group” value is “higher withdrawal force threshold compared to the vehicle-treated group”. Further, the “withdrawal force threshold (Von Frey)” value in assay [1] (1.5 hours post dosing, vehicle 0.89±0.11 g) is 1.48 ± 0.10 g; in assay [1] (3.5 hours post dosing, vehicle 0.78±0.06 g) it was 1.36 ± 0.09 g; in assay [1] (5.5 hours post dosing, vehicle 0.82±0.08 g), 1.52 ± 0.13 g. The “onset of action (muscle spasms)” value in assay [2] (single P.O. 3 mg/kg), in assay [2] (single P.O. 10 mg/kg) and in assay [2] (single P.O. 30 mg/kg) was 1 h each time. Further, the results for the “duration of action (muscle spasms)” value in assay [2] (single P.O. 3 mg/kg), in assay [2] (single P.O. 10 mg/kg) and in assay [2] (single P.O. 30 mg/kg) were 5 h, 3 h and 5 h, respectively. Moreover, the “muscle spasms (AUC)” value in assay [2] (single P.O., all tested dosages (3, 10, 30 mg/kg), n=10) is recorded as “significantly reduced”.
